Measured values: patent US8143293B2, “Kinase inhibitors useful for the treatment of myleoprolific diseases and other proliferative diseases” (Deciphera Pharmaceuticals, LLC, priority 2007, dated 2012)
Residue numbers refer to the chain shown, from its start.

Key:
[1] = target: T1, Abl kinase (SEQ ID NO: 1) (Homo sapiens, UniProt P00519); assay: Abl kinase (SEQ ID NO:1) assay, pyruvate kinase/lactate dehydrogenase coupled; conditions: 2 h preincubation, ATP 500 μM; read-out: Biochemical IC50, Abl Enzyme Assay
T1 construct: purchased deCode Genetics
T1 sequence (P00519 with tags, fused parts or gaps): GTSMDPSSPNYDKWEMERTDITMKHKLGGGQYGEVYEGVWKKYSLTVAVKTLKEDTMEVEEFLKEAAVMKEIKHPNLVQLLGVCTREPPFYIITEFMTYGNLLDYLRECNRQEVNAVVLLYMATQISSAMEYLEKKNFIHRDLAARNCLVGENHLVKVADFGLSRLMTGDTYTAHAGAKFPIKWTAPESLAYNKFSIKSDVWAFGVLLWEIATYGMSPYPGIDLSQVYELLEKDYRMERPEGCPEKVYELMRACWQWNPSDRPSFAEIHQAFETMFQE
Method: Abl Kinase (SEQ ID NO:1) Assay
Activity of Abl kinase (SEQ ID NO: 1) was determined by following the production of ADP from the kinase reaction through coupling with the pyruvate kinase/lactate dehydrogenase system (e.g., Schindler, et al. Science (2000) 289, 1938-1942). In this assay, the oxidation of NADH (thus the decrease at A340 nm) was continuously monitored spectrophometrically. The reaction mixture (100 μl) contained Abl kinase (1 nM. Abl from deCode Genetics), peptide substrate (EAIYAAPFAKKK, 0.2 mM), MgCl2 (10 mM), pyruvate kinase (4 units), lactate dehydrogenase (0.7 units), phosphoenol pyruvate (1 mM), and NADH (0.28 mM) in 90 mM Tris buffer containing 0.2% octyl-glucoside and 3.5% DMSO, pH 7.5. Test compounds were incubated with Abl (SEQ ID NO:1) and other reaction reagents at 30° C. for 2 h before ATP (500 μM) was added to start the reaction. The absorption at 340 nm was monitored continuously for 2 hours at 30° C. on Polarstar Optima plate reader (BMG). The reaction rate was calculated using the 1.0 to 2.0 h time frame. Percent inhibition was obtained by comparison of reaction rate with that of a control (i.e. with no test compound). IC50 values were calculated from a series of percent inhibition values determined at a range of inhibitor concentrations using software routines as implemented in the GraphPad Prism software package.

[2] = target: T2, BaF3 cells transfected with wild type p210 BCR-Abl (Homo sapiens, UniProt P00519); assay: Ba/F3 p210 whole cell proliferation assay; type: cell-based; conditions: 72 hours, Cell Titer Blue; read-out: Whole Cell Antiproliferation IC50, Ba/F3 p210 whole cell proliferation assay
T2 construct: fused on or other part: P11274 (Breakpoint cluster region protein)
Method: (§1) BaF3 cells (parental or transfected with the following: wild type p210 BCR-Abl and T315I p210 BCR-Abl was obtained from Professor Richard Van Etten (New England Medical Center, Boston, Mass.). Briefly, cells were grown in RPMI 1640 supplemented with 10% characterized fetal bovine serum (HyClone, Logan, Utah) at 37 degrees Celsius, 5% CO2, 95% humidity. Cells were allowed to expand until reaching 80% saturation at which point they were subcultured or harvested for assay use.
(§2) A serial dilution of test compound was dispensed into a 96 well black clear bottom plate (Corning, Corning, N.Y.). For each cell line, three thousand cells were added per well in complete growth medium. Plates were incubated for 72 hours at 37 degrees Celsius, 5% CO2, 95% humidity. At the end of the incubation period Cell Titer Blue (Promega, Madison, Wis.) was added to each well and an additional 4.5 hour incubation at 37 degrees Celsius, 5% CO2, 95% humidity was performed. Plates were then read on a BMG Fluostar Optima (BMG, Durham, N.C.) using an excitation of 544 nm and an emission of 612 nm. Data was analyzed using Prism software (Graphpad, San Diego, Calif.) to calculate IC50's.

[3] = target: T3, BaF3 cells transfected with T315I p210 BCR-Abl (Homo sapiens, UniProt P00519, T315I, cells depend on it); assay: Ba/F3 p210 T315I whole cell proliferation assay; type: cell-based; conditions: 72 hours, Cell Titer Blue; read-out: Whole Cell Antiproliferation IC50, Ba/F3 p210 T315I whole cell proliferation assay
T3 construct: fused on or other part: P11274 (Breakpoint cluster region protein)
Method: as §1, §2

[4] = target: T4, T315I Abl kinase (SEQ ID NO:2) (Homo sapiens, UniProt P00519, T315I); assay: T315I Abl kinase (SEQ ID NO:2) assay, pyruvate kinase/lactate dehydrogenase coupled; conditions: 1 h preincubation, ATP 500 μM; read-out: Biochemical IC50, Abl T315I Enzyme Assay
T4 construct: purchased deCode Genetics
T4 sequence (P00519 with tags, fused parts or gaps T315I): T1 sequence (P00519 with tags, fused parts or gaps) with T94I
Method: Abl Kinase (SEQ ID NO:2) Assay
Activity of T315I Abl kinase (SEQ ID NO:2) was determined by following the production of ADP from the kinase reaction through coupling with the pyruvate kinase/lactate dehydrogenase system (e.g., Schindler, et al. Science (2000) 289, 1938-1942). In this assay, the oxidation of NADH (thus the decrease at A340 nm) was continuously monitored spectrophometrically. The reaction mixture (100 μl) contained Abl kinase (4.4 nM, […] Abl from deCode Genetics), peptide substrate (EAIYAAPFAKKK, 0.2 mM), MgCl2 (10 mM), pyruvate kinase (4 units), lactate dehydrogenase (0.7 units), phosphoenol pyruvate (1 mM), and NADH (0.28 mM) in 90 mM Tris buffer containing 0.2% octyl-glucoside and 1% DMSO, pH 7.5. Test compounds were incubated with T315I Abl (SEQ ID NO:2) and other reaction reagents at 30° C. for 1 h before ATP (500 μM) was added to start the reaction. The absorption at 340 nm was monitored continuously for 2 hours at 30° C. on Polarstar Optima plate reader (BMG). The reaction rate was calculated using the 1.0 to 2.0 h time frame. Percent inhibition was obtained by comparison of reaction rate with that of a control (i.e. with no test compound). IC50 values were calculated from a series of percent inhibition values determined at a range of inhibitor concentrations using software routines as implemented in the GraphPad Prism software package.

[5] = target: T5, C-Met kinase (SEQ ID NO:10) (Homo sapiens, UniProt P08581); assay: C-Met kinase (SEQ ID NO:10) assay, pyruvate kinase/lactate dehydrogenase coupled; conditions: 0.5 h preincubation, ATP 100 μM; read-out: Biochemical IC50, c-Met Enzyme Assay
T5 construct: 956-1390, from Invitrogen, catalogue #PV3143; His6 (N-terminal leader MSYYHHHHHH... with TEV and thrombin sites) (N); purchased Invitrogen PV3143
T5 sequence (P08581 with tags, fused parts or gaps): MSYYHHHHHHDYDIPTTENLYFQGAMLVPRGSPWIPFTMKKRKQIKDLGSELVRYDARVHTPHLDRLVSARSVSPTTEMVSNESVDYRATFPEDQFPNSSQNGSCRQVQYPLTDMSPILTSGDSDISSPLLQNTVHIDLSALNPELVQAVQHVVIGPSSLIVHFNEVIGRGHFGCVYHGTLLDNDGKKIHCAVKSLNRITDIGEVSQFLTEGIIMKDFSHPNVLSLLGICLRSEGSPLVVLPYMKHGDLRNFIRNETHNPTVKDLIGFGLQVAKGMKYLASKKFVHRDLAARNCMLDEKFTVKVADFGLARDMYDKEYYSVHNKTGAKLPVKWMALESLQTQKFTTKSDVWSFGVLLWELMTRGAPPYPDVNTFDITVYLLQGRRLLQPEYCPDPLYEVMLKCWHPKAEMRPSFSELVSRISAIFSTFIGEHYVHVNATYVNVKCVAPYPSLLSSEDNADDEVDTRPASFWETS
Method: C-Met Kinase (SEQ ID NO:10) Assay
Activity of C-Met kinase (SEQ ID NO:10) was determined by following the production of ADP from the kinase reaction through coupling with the pyruvate kinase/lactate dehydrogenase system (e.g., Schindler, et al. Science (2000) 289, 1938-1942). In this assay, the oxidation of NADH (thus the decrease at A340 nm) was continuously monitored spectrophometrically. The reaction mixture (100 μl) contained C-Met (c-Met residues; 956-1390, from Invitrogen, catalogue #PV3143, […]), polyE4Y (1 mg/ml), MgCl2 (10 mM), pyruvate kinase (4 units), lactate dehydrogenase (0.7 units), phosphoenol pyruvate (1 mM), and NADH (0.28 mM) in 90 mM Tris buffer containing 0.25 mM DTT, 0.2% octyl-glucoside and 1% DMSO, pH 7.5. Test compounds were incubated with C-Met (SEQ ID NO:10) and other reaction reagents at 22° C. for 0.5 h before ATP (100 μM) was added to start the reaction. The absorption at 340 nm was monitored continuously for 2 hours at 30° C. on Polarstar Optima plate reader (BMG). The reaction rate was calculated using the 1.0 to 2.0 h time frame. Percent inhibition was obtained by comparison of reaction rate with that of a control (i.e. with no test compound). IC50 values were calculated from a series of percent inhibition values determined at a range of inhibitor concentrations using software routines as implemented in the GraphPad Prism software package.

Row | Structure (SMILES) | IC50 [1] [nM] | GI50 [2] [nM] | GI50 [3] [nM] | IC50 [4] [nM] | IC50 [5] [µM]
1 | Cn1cc(-c2cc(Oc3ccc(NC(=O)Nc4cc(C5CC5)nn4C)c(F)c3)ccn2)cn1 [Example 33, 1-(3-cyclopropyl-1-methyl-1H-pyrazol-5-yl)-3-(2-fluoro-4-(2-(1-methyl-1H-pyrazol-4-yl)pyridin-4-yloxy)phenyl)urea] | < 1000 | < 1000 | < 1000 | < 1000 | 
2 | Cc1ncc(C(F)(F)F)cc1NC(=O)Nc1ccc(Oc2ccnc(-c3cnn(C)c3)c2)cc1F [Example 37, 1-(2-fluoro-4-(2-(1-methyl-1H-pyrazol-4-yl)pyridin-4-yloxy)phenyl)-3-(2-methyl-5-(trifluoromethyl)pyridin-3-yl)urea] | < 100 | < 100 | < 100 | < 100 | 
3 | Cn1cc(-c2cc(Oc3ccc(NC(=O)Nc4cnc(C(C)(C)C)o4)c(F)c3)ccn2)cn1 [Example 26, 1-(2-tert-butyloxazol-5-yl)-3-(2-fluoro-4-(2-(1-methyl-1H-pyrazol-4-yl)pyridin-4-yloxy)phenyl)urea] | < 100 |  |  |  | 
4 | CC(C)n1cnc(NC(=O)Nc2ccc(Oc3ccnc(-c4cnn(C)c4)c3)cc2F)c1 [Example 34, 1-(2-fluoro-4-(2-(1-methyl-1H-pyrazol-4-yl)pyridin-4-yloxy)phenyl)-3-(1-isopropyl-1H-imidazol-4-yl)urea] | < 100 | < 100 | < 1000 | < 100 | 
5 | Cc1c(C(C)(C)C)noc1NC(=O)Nc1ccc(Oc2ccnc(-c3cnn(C)c3)c2)cc1F [Example 31, 1-(3-tert-butyl-4-methylisoxazol-5-yl)-3-(2-fluoro-4-(2-(1-methyl-1H-pyrazol-4-yl)pyridin-4-yloxy)phenyl)urea] | < 100 | < 100 | < 100 | < 100 | 

Results, then the compound that gave them:

Row | IC50 [1] [nM] | GI50 [2] [nM] | GI50 [3] [nM] | IC50 [4] [nM] | IC50 [5] [µM] | Structure (SMILES)
6 | < 100 | < 1000 | < 100000 |  |  | Cn1cc(-c2cc(Oc3ccc(NC(=O)Nc4nc5ccc(F)cc5s4)c(F)c3)ccn2)cn1 [Example 29, 1-(2-fluoro-4-(2-(1-methyl-1H-pyrazol-4-yl)pyridin-4-yloxy)phenyl)-3-(6-fluorobenzo[d]thiazol-2-yl)urea]
7 | < 100 | < 100 | < 100 |  | < 10 | CC(C)n1cc(NC(=O)Nc2ccc(Oc3ccnc(-c4cnn(C)c4)c3)cc2F)c(C(F)(F)F)n1 [Example 18, 1-(2-fluoro-4-(2-(1-methyl-1H-pyrazol-4-yl)pyridin-4-yloxy)phenyl)-3-(1-isopropyl-3-(trifluoromethyl)-1H-pyrazol-4-yl)urea]
8 | < 100 | < 100 | < 1000 |  |  | Cc1c(NC(=O)Nc2ccc(Oc3ccnc(-c4cnn(C)c4)c3)cc2F)cnn1C1CCCC1 [Example 23, 1-(1-cyclopentyl-5-methyl-1H-pyrazol-4-yl)-3-(2-fluoro-4-(2-(1-methyl-1H-pyrazol-4-yl)pyridin-4-yloxy)phenyl)urea]
9 | < 100 | < 1000 | < 100000 | < 1000 |  | Cc1cc(NC(=O)Nc2ccc(Oc3ccnc(-c4cnn(C)c4)c3)cc2F)nn1C(C)(C)C [Example 38, 1-(1-tert-butyl-5-methyl-1H-pyrazol-3-yl)-3-(2-fluoro-4-(2-(1-methyl-1H-pyrazol-4-yl)pyridin-4-yloxy)phenyl)urea]
10 | < 100 | < 100 | < 100 | < 100 |  | CCc1cncc(NC(=O)Nc2ccc(Oc3ccnc(-c4cnn(C)c4)c3)cc2F)c1 [Example 32, 1-(5-ethylpyridin-3-yl)-3-(2-fluoro-4-(2-(1-methyl-1H-pyrazol-4-yl)pyridin-4-yloxy)phenyl)urea]
11 | < 1000 | < 10000 | < 100000 | < 10000 |  | Cn1cc(-c2cc(Oc3ccc(NC(=O)NC4CCN(C(C)(C)C)C4)c(F)c3)ccn2)cn1 (stereo not shown) [Example 36, 1-(1-tert-butylpyrrolidin-3-yl)-3-(2-fluoro-4-(2-(1-methyl-1H-pyrazol-4-yl)pyridin-4-yloxy)phenyl)urea]
12 | < 1000 | < 1000 | < 100000 | < 10000 |  | Cn1cc(-c2cc(Oc3ccc(NC(=O)NC4CC(=O)N(C(C)(C)C)C4)c(F)c3)ccn2)cn1 (stereo not shown) [Example 35, 1-(1-tert-butyl-5-oxopyrrolidin-3-yl)-3-(2-fluoro-4-(2-(1-methyl-1H-pyrazol-4-yl)pyridin-4-yloxy)phenyl)urea]
